Measurements reported in ChEMBL document CHEMBL1132828, “Pharmacophore identification of a specific CXCR4 inhibitor, T140, leads to development of effective anti-HIV agents with very high selectivity indexes” (Bioorg Med Chem Lett, 2000).
Where a SMILES comes first, the peptide text is derived from it. Bridges are numbered along the chain shown (N, C = ends). [ ]: non-standard residue; d: D form. 2Nal = N[C@@H](Cc1ccc2ccccc2c1)C(=O)O; Cit = NC(=O)NCCC[C@H](N)C(=O)O

Assays:
[1] = Ratio of cytotoxic concentration (CC50) in test-II to that of EC50 of compound; assay type: functional, Homo sapiens
MT4 [2] = test: Compound was tested for reduction of the viability of mock infected MT-4 cell in test-I; assay type: functional; settings: Homo sapiens
[3] = Ratio of cytotoxic concentration (CC50) in test-I to that of EC50 of compound; assay type: functional, Homo sapiens
MT4 [4] = test: Compound was tested for reduction of the viability of mock infected MT-4 cell in test-II; assay type: functional; settings: Homo sapiens

Compound | Ratio [1] | CC50 (MT4 [2]) [µM] | Ratio [3] | CC50 (MT4 [4]) [µM]
NCCCC[C@@H]1NC(=O)[C@H](CCCN=C(N)N)NC(=O)[C@H](Cc2ccc(O)cc2)NC(=O)[C@@H](NC(=O)[C@H](Cc2ccc3ccccc3c2)NC(=O)[C@H](CCCN=C(N)N)NC(=O)[C@@H](N)CCCN=C(N)N)CSSC[C@@H](C(=O)N[C@@H](CCCN=C(N)N)C(=O)O)NC(=O)[C@H](CCCNC(N)=O)NC(=O)[C@H](CCCN=C(N)N)NC(=O)[C@H](Cc2ccc(O)cc2)NC(=O)[C@@H]2CCCN2C(=O)[C@@H](CCCNC(N)=O)NC1=O | 69000 | > 80 | >20000 | 280
NCCCC[C@@H]1NC(=O)[C@H](CCCN=C(N)N)NC(=O)[C@H](Cc2ccc(O)cc2)NC(=O)[C@@H](NC(=O)[C@H](Cc2ccc3ccccc3c2)NC(=O)[C@H](CCCN=C(N)N)NC(=O)[C@@H](N)CCCN=C(N)N)CSSC[C@@H](C(=O)N[C@@H](CCCN=C(N)N)C(=O)O)NC(=O)[C@H](CCCNC(N)=O)NC(=O)[C@H](CCCN=C(N)N)NC(=O)[C@H](Cc2ccc(O)cc2)NC(=O)[C@@H]2CCCN2C(=O)[C@@H](CCCCN)NC1=O (H-RR[2Nal]CYRK[dK]PYR[Cit]CR-OH; disulfide 4-13) | 29000 | > 1 | >>300 | 96
C[C@H](NC(=O)[C@@H](N)CCCN=C(N)N)C(=O)N[C@@H](Cc1ccc2ccccc2c1)C(=O)N[C@H]1CSSC[C@@H](C(=O)N[C@@H](CCCN=C(N)N)C(=O)O)NC(=O)[C@H](CCCNC(N)=O)NC(=O)[C@H](CCCN=C(N)N)NC(=O)[C@H](Cc2ccc(O)cc2)NC(=O)[C@@H]2CCCN2C(=O)[C@@H](CCCCN)NC(=O)[C@H](CCCCN)NC(=O)[C@H](CCCN=C(N)N)NC(=O)[C@H](Cc2ccc(O)cc2)NC1=O | – | > 80 | >64 | –
C[C@H]1NC(=O)[C@H](CCCCN)NC(=O)[C@H](CCCN=C(N)N)NC(=O)[C@H](Cc2ccc(O)cc2)NC(=O)[C@@H](NC(=O)[C@H](Cc2ccc3ccccc3c2)NC(=O)[C@H](CCCN=C(N)N)NC(=O)[C@@H](N)CCCN=C(N)N)CSSC[C@@H](C(=O)N[C@@H](CCCN=C(N)N)C(=O)O)NC(=O)[C@H](CCCNC(N)=O)NC(=O)[C@H](CCCN=C(N)N)NC(=O)[C@H](Cc2ccc(O)cc2)NC(=O)[C@@H]2CCCN2C1=O | – | > 80 | >5200 | –
C[C@@H]1NC(=O)[C@H](CCCN=C(N)N)NC(=O)[C@H](Cc2ccc(O)cc2)NC(=O)[C@@H]2CCCN2C(=O)[C@@H](CCCCN)NC(=O)[C@H](CCCCN)NC(=O)[C@H](CCCN=C(N)N)NC(=O)[C@H](Cc2ccc(O)cc2)NC(=O)[C@@H](NC(=O)[C@H](Cc2ccc3ccccc3c2)NC(=O)[C@H](CCCN=C(N)N)NC(=O)[C@@H](N)CCCN=C(N)N)CSSC[C@@H](C(=O)N[C@@H](CCCN=C(N)N)C(=O)O)NC1=O | – | 55 | 3300 | –
NCCCC[C@@H]1NC(=O)[C@H](CCCN=C(N)N)NC(=O)[C@H](Cc2ccc(O)cc2)NC(=O)[C@@H](NC(=O)[C@H](Cc2ccc3ccccc3c2)NC(=O)[C@H](CCCN=C(N)N)NC(=O)[C@@H](N)CCCN=C(N)N)CSSC[C@@H](C(=O)N[C@@H](CCCNC(N)=O)C(=O)O)NC(=O)[C@H](CCCNC(N)=O)NC(=O)[C@H](CCCN=C(N)N)NC(=O)[C@H](Cc2ccc(O)cc2)NC(=O)[C@@H]2CCCN2C(=O)[C@@H](CCCCN)NC1=O | 200 | > 40 | >220 | 180
C[C@H](NC(=O)[C@H](CCCN=C(N)N)NC(=O)[C@@H](N)CCCN=C(N)N)C(=O)N[C@H]1CSSC[C@@H](C(=O)N[C@@H](CCCN=C(N)N)C(=O)O)NC(=O)[C@H](CCCNC(N)=O)NC(=O)[C@H](CCCN=C(N)N)NC(=O)[C@H](Cc2ccc(O)cc2)NC(=O)[C@@H]2CCCN2C(=O)[C@@H](CCCCN)NC(=O)[C@H](CCCCN)NC(=O)[C@H](CCCN=C(N)N)NC(=O)[C@H](Cc2ccc(O)cc2)NC1=O | – | > 80 | >34 | –
NCCCC[C@@H]1NC(=O)[C@H](CCCN=C(N)N)NC(=O)[C@H](Cc2ccc(O)cc2)NC(=O)[C@@H](NC(=O)[C@H](Cc2c[nH]c3ccccc23)NC(=O)[C@H](CCCN=C(N)N)NC(=O)[C@@H](N)CCCN=C(N)N)CSSC[C@@H](C(=O)N[C@@H](CCCN=C(N)N)C(=O)O)NC(=O)[C@H](CCCNC(N)=O)NC(=O)[C@H](CCCN=C(N)N)NC(=O)[C@H](Cc2ccc(O)cc2)NC(=O)[C@@H]2CCCN2C(=O)[C@@H](CCCCN)NC1=O | 23000 | > 1 | >>120 | 190
NCCCC[C@@H]1NC(=O)[C@H](CCCN=C(N)N)NC(=O)[C@H](Cc2ccc(O)cc2)NC(=O)[C@@H](NC(=O)[C@H](Cc2ccc3ccccc3c2)NC(=O)[C@H](CCCNC(N)=O)NC(=O)[C@@H](N)CCCN=C(N)N)CSSC[C@@H](C(=O)N[C@@H](CCCN=C(N)N)C(=O)O)NC(=O)[C@H](CCCNC(N)=O)NC(=O)[C@H](CCCN=C(N)N)NC(=O)[C@H](Cc2ccc(O)cc2)NC(=O)[C@@H]2CCCN2C(=O)[C@@H](CCCCN)NC1=O | 570 | > 80 | >180 | 260
CC(N)C(=O)N[C@@H](CCCN=C(N)N)C(=O)N[C@@H](Cc1ccc2ccccc2c1)C(=O)N[C@H]1CSSC[C@@H](C(=O)N[C@@H](CCCN=C(N)N)C(=O)O)NC(=O)[C@H](CCCNC(N)=O)NC(=O)[C@H](CCCN=C(N)N)NC(=O)[C@H](Cc2ccc(O)cc2)NC(=O)[C@@H]2CCCN2C(=O)[C@@H](CCCCN)NC(=O)[C@H](CCCCN)NC(=O)[C@H](CCCN=C(N)N)NC(=O)[C@H](Cc2ccc(O)cc2)NC1=O (stereo not given in full) | – | > 40 | >750 | –
NCCCC[C@@H]1NC(=O)[C@H](CCCN=C(N)N)NC(=O)[C@H](Cc2ccc(O)cc2)NC(=O)[C@@H](NC(=O)[C@H](Cc2ccc3ccccc3c2)NC(=O)[C@H](CCCN=C(N)N)NC(=O)[C@@H](N)CCCN=C(N)N)CSSC[C@@H](C(=O)N[C@@H](CCCN=C(N)N)C(=O)O)NC(=O)[C@H](CCCNC(N)=O)NC(=O)[C@H](CCCNC(N)=O)NC(=O)[C@H](Cc2ccc(O)cc2)NC(=O)[C@@H]2CCCN2C(=O)[C@@H](CCCCN)NC1=O | 20000 | > 80 | >5300 | 310
C[C@@H]1NC(=O)[C@H](CCCN=C(N)N)NC(=O)[C@H](Cc2ccc(O)cc2)NC(=O)[C@@H](NC(=O)[C@H](Cc2ccc3ccccc3c2)NC(=O)[C@H](CCCN=C(N)N)NC(=O)[C@@H](N)CCCN=C(N)N)CSSC[C@@H](C(=O)N[C@@H](CCCN=C(N)N)C(=O)O)NC(=O)[C@H](CCCNC(N)=O)NC(=O)[C@H](CCCN=C(N)N)NC(=O)[C@H](Cc2ccc(O)cc2)NC(=O)[C@@H]2CCCN2C(=O)[C@@H](CCCCN)NC1=O | – | > 80 | >1800 | –
NCCCC[C@@H]1NC(=O)[C@H](CCCN=C(N)N)NC(=O)[C@H](Cc2ccc(O)cc2)NC(=O)[C@@H](NC(=O)[C@H](Cc2ccc3ccccc3c2)NC(=O)[C@H](CCCN=C(N)N)NC(=O)[C@@H](N)CCCNC(N)=O)CSSC[C@@H](C(=O)N[C@@H](CCCN=C(N)N)C(=O)O)NC(=O)[C@H](CCCNC(N)=O)NC(=O)[C@H](CCCN=C(N)N)NC(=O)[C@H](Cc2ccc(O)cc2)NC(=O)[C@@H]2CCCN2C(=O)[C@@H](CCCCN)NC1=O | 18000 | > 80 | >5300 | 280
C[C@@H]1NC(=O)[C@@H](NC(=O)[C@H](Cc2ccc3ccccc3c2)NC(=O)[C@H](CCCN=C(N)N)NC(=O)[C@@H](N)CCCN=C(N)N)CSSC[C@@H](C(=O)N[C@@H](CCCN=C(N)N)C(=O)O)NC(=O)[C@H](CCCNC(N)=O)NC(=O)[C@H](CCCN=C(N)N)NC(=O)[C@H](Cc2ccc(O)cc2)NC(=O)[C@@H]2CCCN2C(=O)[C@@H](CCCCN)NC(=O)[C@H](CCCCN)NC(=O)[C@H](CCCN=C(N)N)NC1=O | – | > 80 | >230 | –
C[C@@H]1NC(=O)[C@@H]2CCCN2C(=O)[C@@H](CCCCN)NC(=O)[C@H](CCCCN)NC(=O)[C@H](CCCN=C(N)N)NC(=O)[C@H](Cc2ccc(O)cc2)NC(=O)[C@@H](NC(=O)[C@H](Cc2ccc3ccccc3c2)NC(=O)[C@H](CCCN=C(N)N)NC(=O)[C@@H](N)CCCN=C(N)N)CSSC[C@@H](C(=O)N[C@@H](CCCN=C(N)N)C(=O)O)NC(=O)[C@H](CCCNC(N)=O)NC(=O)[C@H](CCCN=C(N)N)NC1=O | – | > 80 | >4500 | –
C[C@@H]1NC(=O)[C@H](Cc2ccc(O)cc2)NC(=O)[C@@H]2CCCN2C(=O)[C@@H](CCCCN)NC(=O)[C@H](CCCCN)NC(=O)[C@H](CCCN=C(N)N)NC(=O)[C@H](Cc2ccc(O)cc2)NC(=O)[C@@H](NC(=O)[C@H](Cc2ccc3ccccc3c2)NC(=O)[C@H](CCCN=C(N)N)NC(=O)[C@@H](N)CCCN=C(N)N)CSSC[C@@H](C(=O)N[C@@H](CCCN=C(N)N)C(=O)O)NC(=O)[C@H](CCCNC(N)=O)NC1=O | – | > 80 | >4800 | –
C[C@@H]1NC(=O)[C@@H](CCCCN)NC(=O)[C@H](CCCCN)NC(=O)[C@H](CCCN=C(N)N)NC(=O)[C@H](Cc2ccc(O)cc2)NC(=O)[C@@H](NC(=O)[C@H](Cc2ccc3ccccc3c2)NC(=O)[C@H](CCCN=C(N)N)NC(=O)[C@@H](N)CCCN=C(N)N)CSSC[C@@H](C(=O)N[C@@H](CCCN=C(N)N)C(=O)O)NC(=O)[C@H](CCCNC(N)=O)NC(=O)[C@H](CCCN=C(N)N)NC(=O)[C@H](Cc2ccc(O)cc2)NC1=O (H-RR[2Nal]CYRK[dK]AYR[Cit]CR-OH; disulfide 4-13) | – | > 80 | >4700 | –
C[C@H](NC(=O)[C@@H]1CSSC[C@H](NC(=O)[C@H](Cc2ccc3ccccc3c2)NC(=O)[C@H](CCCN=C(N)N)NC(=O)[C@@H](N)CCCN=C(N)N)C(=O)N[C@@H](Cc2ccc(O)cc2)C(=O)N[C@@H](CCCN=C(N)N)C(=O)N[C@@H](CCCCN)C(=O)N[C@H](CCCCN)C(=O)N2CCC[C@H]2C(=O)N[C@@H](Cc2ccc(O)cc2)C(=O)N[C@@H](CCCN=C(N)N)C(=O)N[C@@H](CCCNC(N)=O)C(=O)N1)C(=O)O | – | > 80 | >210 | –
